Source: ChEMBL document CHEMBL1157539, “Thousands of chemical starting points for antimalarial lead identification” (Nature, 2010)

tested on: Plasmodium falciparum; test: GSK_TCMDC: Inhibition of Plasmodium falciparum 3D7 in whole erythrocytes, using parasite LDH activity as an index of growth.; assay type: functional, organism-based; conditions: Plasmodium falciparum, 3D7

Row | Structure (SMILES) | XC50
1 | O=C(/C=N/O)Nc1ccccc1[N+](=O)[O-] | 785 nM
2 | Cc1[nH]c(C)c(-c2ccc(Oc3cccc(C(F)(F)F)c3)cc2)c(=O)c1Br | 7.69 nM
3 | COc1cccc(CNC(=O)c2ccnc(-c3ccc(CNCCOc4ccccc4)cc3)c2)c1 | 1200 nM
4 | CC(C)CCC[C@@H]([C@@H](CC1CCCCC1)C(=O)N[C@@H](CCCCNC(=O)OCc1ccccc1)C(=O)Nc1nccs1)N(O)C=O | 457 nM
5 | Nc1nnc(-c2ccc(Cl)c(Br)c2)c(N)n1 | 1040 nM
6 | CC(C)N1CCC(NC(=O)N2CCCN(c3ncnc4cc(-c5ccccc5)sc34)CC2)CC1 | 861 nM
7 | Clc1cc(Nc2ncnc3sc(C#Cc4ncc[nH]4)cc23)ccc1OCc1ccccn1 | 1110 nM
8 | CN(C)C(CNc1ncnc2cc(Cl)ccc12)Cc1ccccc1 (configuration not stated) | 872 nM
9 | O=S(=O)(Nc1cc2c(cc1OCc1ccccc1)CCN(C1CCC1)CC2)c1ccc(-c2ccc(Cl)cc2)cc1 | 1140 nM
10 | CCCCC(N)COc1cccc2c(-c3ccncc3)c(-c3cccc(NC(=O)Nc4ccccc4)c3)nn12 (configuration not stated) | 878 nM
11 | COc1cccc(CN2CCCC(OC(c3ccccc3)c3ccccc3)C2)c1O (configuration not stated) | 930 nM
12 | CC(C)n1cc2c(ccc3nc(N)nc(N)c32)n1 | 36.9 nM
13 | CCN(C1CCCCC1)S(=O)(=O)c1ccc(OC)c(N2CCN(C(=O)C(Cl)(Cl)Cl)CC2)c1 | 635 nM
14 | c1ccc2nc(NCCCCCCCCNc3ccc4ccccc4n3)ccc2c1 | 272 nM
15 | COc1ccc(CC(=O)Nc2ccc(-c3cccc(-c4nc5cccc(C)c5[nH]4)c3)cc2)cc1O | 452 nM
16 | Cc1cccc(NC(=O)N(Cc2cc3cc(C)cc(C)c3[nH]c2=O)C2CC2)c1 | 336 nM
17 | O=C(/C=C/c1cc(F)c(F)cc1F)N1CCC(CN2CCC(c3c[nH]c4ccccc34)CC2)CC1 | 995 nM
18 | CNC(=O)C(C)N(c1ccc(Cl)cc1)c1nc(C(C)(C)C)cs1 (configuration not stated) | 741 nM
19 | CCC[C@@H](C(=O)NCCc1cccc(OC)c1)N1C(=O)c2c(ccc(OC)c2OC)C1C(=O)Nc1c(C)cccc1C (some centres not stated) | 808 nM
20 | O=C(Cc1c[nH]cn1)Nc1cccc(-c2cccc(-c3nc4cc(C(F)(F)F)ccc4[nH]3)c2)c1 | 225 nM
21 | O=C(Cc1ccccc1)NC(CCN1CCC(O)(c2cccc(C(F)(F)F)c2)CC1)c1ccc(Cl)c(Cl)c1 (configuration not stated) | 855 nM
22 | COc1ccc(CN(C)CCCOc2ccc(NC(=O)c3cccc4c(=O)c5cccc(C)c5[nH]c34)cc2)cc1OC | 889 nM
23 | CC(C)(C)c1ccc(OCCCON2C(=N)N=C(N)NC2(C)C)c(C(C)(C)C)c1 | 3.2 nM
24 | CC(C)(C)c1ccc(NC(=O)c2cccc(CN3CCCN(Cc4ccc(F)cc4)CC3)c2)cc1 | 989 nM
25 | Cc1nnsc1C(=O)Nc1cccc(-c2ccc(-c3nc4cccc(C)c4[nH]3)s2)c1 | 1120 nM

Row | Structure (SMILES) | XC50
26 | Cc1cc(N2CCNCC2)c2cc(NC(=O)Nc3ccc(Cl)c(Cl)c3)ccc2n1 | 313 nM
27 | Cc1nc(C)c(-c2ccc(Oc3cccc(OC(F)(F)F)c3)cc2)c(O)c1Br | 17.1 nM
28 | Cc1cc(N(C)C)nc(Nc2ccc(NC(=O)CCc3ccccc3)cc2)n1 | 850 nM
29 | O=C(Nc1ccc([N+](=O)[O-])cc1O)Nc1ccccc1Oc1ccccc1 | 925 nM
30 | O=C(NCC1CCC(C(=O)O)CC1)c1ccc(/C=C/C(=O)N2CCc3ccccc3C2c2ccc3c(c2)OCO3)cc1 (configuration not stated) | 892 nM
31 | COc1cc(NC(=O)/C=C/c2cc(F)cc(F)c2F)cc(OCCN2CCC(O)(c3ccccc3)CC2)c1 | 166 nM
32 | O=C(/C=C/c1ccsc1)N1CCC(CCN2CCC(c3c[nH]c4ccccc34)CC2)CC1 | 905 nM
33 | FC(F)(F)c1ccc2[nH]c(-c3ccc(-c4ccc(CN5CCN(c6ccncc6)CC5)cc4)cc3)nc2c1 | 62.4 nM
34 | FC(F)(F)c1ccc2c(NN=Cc3cccc(Cl)c3)ccnc2c1 | 838 nM
35 | CCCC(C)Nc1nc(C)cc(N[C@@H](CC(C)C)C(=O)NC2CCCC2)n1 (some centres not stated) | 1080 nM
36 | N#Cc1ccc2c(c1)CCN(CCC1CCC(NC(=O)c3cccc(-c4ccc(F)cc4)c3)CC1)CC2 (configuration not stated) | 822 nM
37 | O=C(NCC1CCC(C(=O)NC2CCCc3ccccc32)CC1)c1ccc(O)c(-c2ccc(Cl)c(Cl)c2)c1 (configuration not stated) | 1020 nM
38 | N=C(N)NN=Cc1cc([N+](=O)[O-])ccc1Sc1ccccc1CO | 1460 nM
39 | COc1ccc(F)cc1-c1ccccc1CNC(=O)CN(C)S(=O)(=O)c1cc(C)cc(Cl)c1C | 665 nM
40 | Cc1noc(C)c1-c1cccc(CNCc2ccc(-c3ccc(-c4nc5cc(C(F)(F)F)ccc5[nH]4)s3)cc2)c1 | 181 nM
41 | COc1ccc(-c2ccc(NC(=O)c3ccc(C#N)cc3)cc2)cc1CN1CCN(C)CC1 | 721 nM
42 | CC(C)(C)COc1ccc2c(N)n[nH]c2c1 | 789 nM
43 | CC(C)(C)OC(=O)/C=C(\C(=O)OCc1ccc([N+](=O)[O-])cc1)c1csc(NC(c2ccccc2)(c2ccccc2)c2ccccc2)n1 | 861 nM
44 | CC1CN(c2ccnc3ccc(Sc4ccc(Oc5ccccc5)cc4)cc23)CC(C)N1 (configuration not stated) | 785 nM
45 | Cc1cc(=NN=Cc2ccccc2F)c2cc(C(F)(F)F)ccc2[nH]1 | 433 nM
46 | O=C(c1ccccc1NN=C1C(=O)N(c2ccccc2)N=C1c1ccccc1)N1CCOCC1 | 351 nM
47 | COc1ccc(CCNCc2ccc3c(C)cc(N)nc3c2)cc1 | 568 nM
48 | CCOC(=O)c1c(NC(=O)c2ccccc2)sc2c(O)c(CNC3CCCCC3)ccc12 | 752 nM
49 | Cc1[nH]c(C)c(-c2ccc(Oc3ccc(Cl)cc3)cc2)c(=O)c1C | 385 nM
50 | COc1ccc(C(=O)Nc2ccc(-c3nc4cc(C)ccc4[nH]3)cc2)cc1OC | 761 nM

Row | Structure (SMILES) | XC50
51 | CCc1ccc(C2CCN(CCCCNC(=O)c3ccc(NC(=O)c4ccc(Cl)cc4)cc3)CC2)c(OCC(=O)OC)c1 | 1030 nM
52 | CCCOc1ccc2ccccc2c1CNCCCCCCNCc1c(OCCC)ccc2ccccc12 | 791 nM
53 | O=C(Nc1ccncc1)Nc1ccc2c(c1)CCN(C1CCC1)CC2 | 1130 nM
54 | COc1cccc(C2=CC(C)(C)Oc3cc(OCCN(C)C)ccc32)c1 | 794 nM
55 | CC(NCCC1CCC(NC(=O)N[C@H](C)C(O)(c2ccccc2)c2ccccc2)CC1)c1cccc2ccccc12 (some centres not stated) | 1100 nM
56 | CN1CCCC(CN2CCN(Cc3cccc(-c4ccc(-c5nc6cc(F)ccc6[nH]5)cc4)c3)CC2)C1 (configuration not stated) | 139 nM
57 | Cc1ccc2ccccc2c1CCCON1C(=N)N=C(N)NC1(C)C | 3.2 nM
58 | Clc1ccc(Nc2nc(-c3ccccn3)cs2)nc1 | 774 nM
59 | COc1cc(Cc2cnc(N)nc2N)cc(OCCCOc2ccccc2)c1OC | 1080 nM
60 | Cc1cccc(NC(=O)Nc2cccc(-c3ccc(-c4nc5cc(C(F)(F)F)ccc5[nH]4)cc3)c2)c1 | 905 nM
61 | O=C(/C=C/c1ccc(Cl)c(Cl)c1)NCCCCCN1CCCN(C(=O)Nc2ccc(Br)cc2)CC1 | 777 nM
62 | OC(c1cccc2ccccc12)C1CN(CCc2ccccc2)CCC1(O)c1ccccc1 (configuration not stated) | 145 nM
63 | COC(=O)c1ccc(CCCNCC(O)c2cccc(C(F)(F)F)c2)cc1 (configuration not stated) | 803 nM
64 | CCOc1cc(C)ccc1C1CCN(CCN2CCC(CNC(=O)c3ccc(-c4ccc(C(F)(F)F)cc4)cc3)CC2)CC1 | 701 nM
65 | Cc1c[nH]c2ccc(/C=C/C(=O)NC3CCC(CCN4CCc5ccc(C#N)cc5CC4)CC3)cc12 (configuration not stated) | 828 nM
66 | CC(=O)Nc1ccc2[nH]cc(C3CCN(CC4CCC(NC(=O)/C=C/c5ccccc5Cl)CC4)CC3)c2n1 (configuration not stated) | 364 nM
67 | Cc1c(F)cc(C(=O)NC2CC2)cc1-c1ccc2c(c1)c(C)nn2S(=O)(=O)c1cccs1 | 942 nM
68 | O=C(N[C@@H](Cc1ccccc1)C(=O)NCCN1CCCCC1)c1ccc(O)c(-c2cccc(C(F)(F)F)c2)c1 | 850 nM
69 | CC(C)C[C@H](NC(=O)OC(C)(C)C)C(=O)Nc1ccc(Cc2ccc(NC(=O)[C@H](CC(C)C)NC(=O)OC(C)(C)C)cc2)cc1 | 761 nM
70 | CNc1nc(Nc2ccccc2C)nc2ccccc12 | 443 nM
71 | COc1ccc(CNC2CCCC2)cc1-c1ccc(S(=O)(=O)NCCN2CCCC2)s1 | 798 nM
72 | COc1ccc(N(c2nc(-c3cc(Cl)ccc3Cl)cs2)C2CCNCC2)cc1 | 1090 nM
73 | CCCc1cccc(OC)c1OCCCON1C(N)=NC(N)=NC1(C)C | 3.2 nM
74 | CCOc1ccc(CNCCCCCCNCc2ccc(OCC)c3ccccc23)c2ccccc12 | 447 nM
75 | CS(=O)(=O)CCNc1cc(N2CCc3ncnc(Nc4ccc(OCc5cccc(F)c5)c(Cl)c4)c3C2)ncn1 | 873 nM

Row | Structure (SMILES) | XC50
76 | Cc1cc(-c2cc3nc4c(c(O)n3n2)CCCC4)c(C)o1 | 821 nM
77 | CC(C)(C)c1cc(NC(=O)c2ccc(Cl)c([N+](=O)[O-])c2)cc(C(C)(C)C)c1 | 1030 nM
78 | CC(C)(C)c1ccc(NC(=O)c2cccc(CN3CCCN(Cc4ccsc4)CC3)c2)cc1 | 760 nM
79 | O=C(Nc1ccc(-c2ccc(-c3nc4ccccc4[nH]3)cc2)cc1)Nc1ccc(Cl)c(Cl)c1 | 98.8 nM
80 | Cc1c(Cc2ccc(C(C)C)cc2)cnc2nc(N)nc(N)c12 | 298 nM
81 | Cc1ccc(-n2c(C)nc3c(Nc4ccc(-c5ccncc5)cc4)ncnc32)c(C)c1 | 101 nM
82 | CN1CCC(NCc2cccc(-c3cnc(NCc4ccccc4)nc3)c2)CC1 | 965 nM
83 | CCn1c(SCc2ccccc2)nc2c1c(=O)[nH]c(=O)n2C | 241 nM
84 | CC(C)CNCc1cccc(-c2ccc(CNc3ccc(C(=O)c4ccccc4)cc3)cc2)c1 | 760 nM
85 | COC(=O)c1ccc(N2CCN(CCCCNC(=O)c3ccc(NC(=O)c4ccc(Cl)cc4)cc3)CC2)c(OC)c1 | 1300 nM
86 | CCOCCCNc1nc2cc(OC)c(OC)cc2c2nc(-c3ccccc3)nn12 | 209 nM
87 | COc1cc2nccc(Nc3ccc4c(cnn4Cc4ccccc4F)c3)c2cc1OC | 400 nM
88 | Fc1ccc(C=NN=c2cc[nH]c3ccccc23)cc1 | 706 nM
89 | COc1cccc(C=CC(=O)NC2CCC(CN3CCC(c4c[nH]c5ccccc45)CC3)CC2)c1OC (configuration not stated) | 740 nM
90 | CN1CCC[C@H]1COc1ccc(CN2CC[C@H](NC(=O)c3ccc(Cl)c(Cl)c3)C2)cc1Br | 983 nM
91 | CCOc1ccc(-c2nonc2NC(=O)c2cccs2)cc1OCC | 756 nM
92 | Cc1cccc2nc(-c3ccc(-c4cccc(CN5CCC(CO)CC5)c4)s3)[nH]c12 | 935 nM
93 | COc1ccc(-n2cc(CNCCCn3ccnc3)c(-c3cccc(F)c3)n2)cc1 | 1060 nM
94 | CCCCCN1C(=O)N(c2ccc(Cl)c(Cl)c2)C(N(O)C(=O)Nc2ccc(Cl)c(Cl)c2)C1(C)C (configuration not stated) | 545 nM
95 | Oc1cccc(-c2nc3cc(C4=NC5CCCCC5N4)ccc3[nH]2)c1 (configuration not stated) | 592 nM
96 | COc1cc2c(C3CCN(CC4CCC(NC(=O)/C=C/c5ccc(Cl)c(Cl)c5)CC4)CC3)c[nH]c2cn1 (configuration not stated) | 423 nM
97 | Cc1ccc(O)cc1Nc1ccnc2cc(-c3csc(CNCCN4CCOCC4)n3)ccc12 | 884 nM
